In series [1] the target is T1, Interferon regulatory factor 4 (Homo sapiens, UniProt Q15306).
T1 sequence (Q15306 whole entry): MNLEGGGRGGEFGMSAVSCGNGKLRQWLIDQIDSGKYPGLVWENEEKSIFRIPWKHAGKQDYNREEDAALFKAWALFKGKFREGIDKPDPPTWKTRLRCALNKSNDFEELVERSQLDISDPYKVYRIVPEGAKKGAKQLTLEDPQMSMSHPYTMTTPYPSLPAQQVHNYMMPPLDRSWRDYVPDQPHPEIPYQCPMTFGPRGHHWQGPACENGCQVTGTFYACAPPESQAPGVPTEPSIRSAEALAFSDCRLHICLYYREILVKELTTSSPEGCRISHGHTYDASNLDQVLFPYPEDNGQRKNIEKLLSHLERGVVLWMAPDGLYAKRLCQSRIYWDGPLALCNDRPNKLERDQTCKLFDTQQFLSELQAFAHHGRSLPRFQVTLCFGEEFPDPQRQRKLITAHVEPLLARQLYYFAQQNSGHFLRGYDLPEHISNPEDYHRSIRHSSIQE
Kind of series: Inhibition of IRF4 (unknown origin) incubated for 1 hr by fluorescence polarization assay.

Series [2] concerns NCI-H929. Kind of series: Antiproliferative activity against human NCI-H929 cells assessed as inhibition of cell viability measured after 72 hrs by MTS assay. It is filed as functional, cell-based. The note with it: NCI-H929, 72 h. On the technique in general: Formazan colour is commonly taken as a measure of viable cells.
The nature of series [3]: Antiproliferative activity against human MM1.R cells assessed as inhibition of cell viability measured after 72 hrs by MTS assay. In kind it is functional, cell-based. Conditions: MM.1R.
The next series has as its system RPMI-8226. Kind of series: Antiproliferative activity against human RPMI-8226 cells assessed as inhibition of cell viability measured after 72 hrs by MTS assay. It is filed as functional, cell-based. The note with it: RPMI-8226, 72 h.
The nature of series [4]: Antiproliferative activity against human HAF cells assessed as inhibition of cell viability measured after 72 hrs by MTS assay. In kind it is toxicity, cell-based.
A short description of series [5]: Antiproliferative activity against human HaCaT cells assessed as inhibition of cell viability measured after 72 hrs by MTS assay. In kind it is toxicity, cell-based.
A short description of series [6]: Selectivity ratio IC50 for human RPMI-8226 cells to IC50 for human NCI-H929 cells. In kind it is toxicity.
Series [7] is described as follows: Selectivity ratio IC50 for human RPMI-8226 cells to IC50 for human MM1.R cells. In kind it is toxicity.
Series [8] can be described thus: Toxicity in Balb/C nude mouse assessed as change in body weight at 25 mg/kg administered once daily and measured every three days for 34 days. It is filed as organism-based. Conditions: in vivo, 816 h, time 34 day.
The nature of series [9]: Toxicity in Balb/C nude mouse assessed as changes in main organ at 25 mg/kg administered once daily and measured every three days for 34 days by H and E staining based analysis. It is filed as organism-based. The note with it: in vivo, 816 h, time 34 day.
Series [10] can be described thus: Toxicity in Balb/C nude mouse assessed as side effects at 25 mg/kg administered once daily and measured every three days for 34 days by H and E staining based analysis. It is filed as organism-based. Conditions: in vivo, 816 h, time 34 day.
The subject of series [11] is NCI-H929. The experiment in a line: Antitumor activity against human NCI-H929 cells xenografted in Balb/C nude mouse model assessed as reduction in Ki67 expression at 25 mg/kg by immunohistochemical staining based analysis. In kind it is functional, organism-based. A general note: Xenograft models place foreign cells or tissue in a host animal.
Series [12] deals with NCI-H929. Kind of series: Antitumor activity against human NCI-H929 cells xenografted in Balb/C nude mouse model assessed as inhibition of Akt phosphorylation level at 25 mg/kg by Western blot analysis. In kind it is functional, organism-based.
The subject of series [13] is NCI-H929. Kind of series: Antitumor activity against human NCI-H929 cells xenografted in Balb/C nude mouse model assessed as inhibition of ERK phosphorylation level at 25 mg/kg by Western blot analysis. In kind it is functional, organism-based.
Series [14] concerns NCI-H929. Kind of series: Antitumor activity against human NCI-H929 cells xenografted in Balb/C nude mouse model assessed as increase in gammaH2AX expression at 25 mg/kg by Western blot analysis. In kind it is functional, organism-based.
Series [15] has as its system NCI-H929. Kind of series: Antitumor activity against human NCI-H929 cells xenografted in Balb/C nude mouse model assessed as inhibition of inhibition of cyclin D1 expression at 25 mg/kg by Western blot analysis. It is filed as functional, organism-based.
Series [16] concerns NCI-H929. The experiment in a line: Antitumor activity against human NCI-H929 cells xenografted in Balb/C nude mouse model assessed as inhibition of […] expression at 25 mg/kg by Western blot analysis. In kind it is functional, organism-based.

This is an account of results in ChEMBL document CHEMBL6121019, “Design, synthesis and biological evaluation of bisnoralcohol derivatives as novel IRF4 inhibitors for the treatment of multiple myeloma” (Eur J Med Chem, 2025).

The source made the active and inactive calls. No cut-off for these calls is given here.

Broadly, the IC50 is the concentration needed to halve the response being measured. `Cc1ccc(NC(=O)[C@@H](C)[C@H]2CC[C@H]3[C@@H]4C(=O)C=C5C(C)(C)C(=O)C(C#N)=C[C@]5(C)[C@H]4CC[C@]23C)cc1`: the IC50 in series [1] stood at 3.65 µM; with NCI-H929 [2], 0.22 µM; in series [3] it was 0.27 µM; in the series on RPMI-8226 it was 0.26 µM. For the same compound, the half-maximal inhibitory concentration (IC50) at 72 h in series [4] and in [5] was greater than 100 µM each time. Besides, the figures for the “Ratio IC50” value in series [6] and in [7] were 1.2 and 1, respectively.

`Nc1cccc2c1CN(C1CCC(=O)NC1=O)C2=O` (configuration not stated) [LENALIDOMIDE]: the Activity result in series [8], in [9] and in series [10] was “Non-toxic” each time. For the same compound, the result in the series on NCI-H929 [11] was inactive. In addition, the outcome in the series with NCI-H929 [12], in the series on NCI-H929 [13], in the series on NCI-H929 [14], in the series on NCI-H929 [15] and in the series with NCI-H929 [16] was Active. The IC50 in [1] is greater than 20 µM; in the series with NCI-H929 [2] it was 2.39 µM; in series [3], 4.52 µM; in the series with RPMI-8226, 50.2 µM. In addition, the IC50 at 72 h in series [4] and in series [5] was greater than 100 µM in each case.

`C[C@H](C(=O)O)[C@H]1CC[C@H]2[C@@H]3C(=O)C=C4C(C)(C)C(=O)C(C#N)=C[C@]4(C)[C@H]3CC[C@]12C`: the IC50 in series [1] worked out at 13.5 µM; in the series with NCI-H929 [2], 2.63 µM; in [3], 3.16 µM; in the series with RPMI-8226, 4.25 µM. Besides, the IC50 at 72 h in series [4] and in series [5] was greater than 100 µM each time. Besides, the “Ratio IC50” value in series [6] came out at 1.6; in series [7], 1.2.

For `C[C@H](C(=O)Nc1ccc(O)cc1)[C@H]1CC[C@H]2[C@@H]3C(=O)C=C4C(C)(C)C(=O)C(C#N)=C[C@]4(C)[C@H]3CC[C@]12C`, the IC50 was found to be 3.52 µM in series [1], 0.49 µM in the series with NCI-H929 [2], 0.57 µM in series [3] and 2.45 µM in the series on RPMI-8226. In addition, the IC50 at 72 h in series [4] and in series [5] was greater than 100 µM throughout. The “Ratio IC50” value is reported as 5 in series [6] and 4.3 in [7].

Regarding `C[C@H](C(=O)n1cccn1)[C@H]1CC[C@H]2[C@@H]3C(=O)C=C4C(C)(C)C(=O)C(C#N)=C[C@]4(C)[C@H]3CC[C@]12C`, the IC50 worked out at 3.79 µM in series [1], 0.06 µM in the series on NCI-H929 [2], 0.24 µM in series [3] and 0.34 µM in the series on RPMI-8226. Besides, the half-inhibitory concentration (IC50) at 72 h in series [4] and in [5] was greater than 100 µM throughout. Further, the “Ratio IC50” value in series [6] is listed as 5.7; in series [7], 1.4.
